Reference: patent publication US20030092757A1, “Favorable modulation of health-related quality of life and health-related quality-adjusted time-to-progression of disease in patients with prostate cancer” (priority 2001, published 2003)

Test system: patients having hormone refractory prostate cancer (HRPCa)
Test: Health-related quality-adjusted time-to-progression (QATTP) of disease, Kaplan-Meier product limit analysis, randomized placebo-controlled study
Format: in vivo, human
Experimental: The health-related QATTP of disease model for this invention expresses progression-free time as an equally preferable amount of time spent in full health. This is achieved by using patient-reported health-related QoL, as measured for the duration of observation or progression-free interval, to weight progression-free time. […] Patients received treatment with 10 mg (N=89) or 2.5 mg (N=95) of atrasentan or placebo (N=104) until experiencing a clinical event indicative of disease progression such as palliative opiate treatment of new bone or visceral pain, palliative radiation treatment of new bone pain, or new tumor growth symptoms requiring intervention or treatment with chemotherapy. Patient-reported health-related QoL data were collected with the EORTC QLQ-30 and the FACT-G and FACT-P, both of which were administered at baseline, at six week intervals and at each patient's final visit. The results from the 10 mg and 2.5 mg treatment groups are reported relative to the placebo group. A patient's transformed domain score and total score from both the EORTC QLQ-30 and FACT were used to weight the time-to-progression outcome data. Transformed domain scores ranged between 0 and 1, so the reported health-related QATTP of disease outcome was never larger than the actual time-to-progression. Each patient's health-related QATTP of disease was computed as the sum of the health-related QoL weights multiplied by the duration for which that patient experienced that health-related QoL. If a patient experienced a clinical event between two health-related QoL assessments, the set of health-related QoL domain scores immediately prior to the event were carried forward to the time of the clinical event. The mean and median health-related QATTP of disease outcomes were then estimated using Kaplan-Meier product limit methodology (Journal of the American Statistical Association, vol. 53, 1958, pp 457-481). The area under a Kaplan-Meier survival curve conveys an estimated mean health-related QATTP of disease. This analysis was applied to both intent-to-treat and per protocol population data. All health-related QATTP of disease comparisons between atrasentan and placebo treatment groups were based on a log-rank test with statistical significance at an α of 0.05. Results of the Kaplan-Meier product limit survival method analysis are reported in TABLE 2 (Intent to Treat) and TABLE 3 (Per Protocol Population). Mean and median health-related QATTP of disease are shown by treatment group. Log-rank tests comparing the differences between treatment groups are also reported.

[1] = EORTC Appetite Loss, 2.5 mg, intent to treat
[2] = EORTC Appetite Loss, 2.5 mg, per protocol
[3] = EORTC Appetite Loss, 10 mg, intent to treat
[4] = EORTC Appetite Loss, 10 mg, per protocol
[5] = EORTC Cognitive Functioning, 2.5 mg, intent to treat
[6] = EORTC Cognitive Functioning, 2.5 mg, per protocol
[7] = EORTC Cognitive Functioning, 10 mg, intent to treat
[8] = EORTC Cognitive Functioning, 10 mg, per protocol
[9] = EORTC Constipation, 2.5 mg, intent to treat
[10] = EORTC Constipation, 2.5 mg, per protocol
[11] = EORTC Constipation, 10 mg, intent to treat
[12] = EORTC Constipation, 10 mg, per protocol
[13] = EORTC Diarrhea, 2.5 mg, intent to treat
[14] = EORTC Diarrhea, 2.5 mg, per protocol
[15] = EORTC Diarrhea, 10 mg, intent to treat
[16] = EORTC Diarrhea, 10 mg, per protocol
[17] = EORTC Dyspnea, 2.5 mg, intent to treat
[18] = EORTC Dyspnea, 2.5 mg, per protocol
[19] = EORTC Dyspnea, 10 mg, intent to treat
[20] = EORTC Dyspnea, 10 mg, per protocol
[21] = EORTC Emotional Functioning, 2.5 mg, intent to treat
[22] = EORTC Emotional Functioning, 2.5 mg, per protocol
[23] = EORTC Emotional Functioning, 10 mg, intent to treat
[24] = EORTC Emotional Functioning, 10 mg, per protocol
[25] = EORTC Fatigue, 2.5 mg, intent to treat
[26] = EORTC Fatigue, 2.5 mg, per protocol
[27] = EORTC Fatigue, 10 mg, intent to treat
[28] = EORTC Fatigue, 10 mg, per protocol
[29] = EORTC Global Score, 2.5 mg, intent to treat
[30] = EORTC Global Score, 2.5 mg, per protocol
[31] = EORTC Global Score, 10 mg, intent to treat
[32] = EORTC Global Score, 10 mg, per protocol
[33] = EORTC Nausea & Vomiting, 2.5 mg, intent to treat
[34] = EORTC Nausea & Vomiting, 2.5 mg, per protocol
[35] = EORTC Nausea & Vomiting, 10 mg, intent to treat
[36] = EORTC Nausea & Vomiting, 10 mg, per protocol
[37] = EORTC Pain, 2.5 mg, intent to treat
[38] = EORTC Pain, 2.5 mg, per protocol
[39] = EORTC Pain, 10 mg, intent to treat
[40] = EORTC Pain, 10 mg, per protocol
[41] = EORTC Physical Functioning, 2.5 mg, intent to treat

CCCCN(CCCC)C(=O)CN1C[C@H](c2ccc3c(c2)OCO3)[C@@H](C(=O)O)[C@@H]1c1ccc(OC)cc1 [atrasentan, (2R,3R,4S)-2-(4-methoxyphenyl)-4-(1,3-benzodioxol-5-yl)-1-(((N,N-dibutylamino)carbonyl)methyl)pyrrolidine-3-carboxylic acid]
log rank tests of mean health-related QATTP of disease (2.5 mg, all health-related QoL domains except dyspnea and functional well-being): statistically significant
mean health-related QATTP of disease (2.5 mg, data in TABLE 2 (so in the source)): longer
difference in health-related QATTP between the atrasentan treatment groups (10 mg vs 2.5 mg, any health-related QoL domain): no statistical differences
mean health-related QATTP's of disease (10 mg, data in TABLE 2 (so in the source), all health-related QoL domains except dyspnea, global score, emotional well-being, social well-being, p<0.05): significantly longer
mean health-related QATTP of disease, trend (10 mg, dyspnea, global score, emotional well-being, social well-being domains, p<0.10): trend favored
QATTP of Disease Mean [1]: 186 days
QATTP of Disease Median [1]: 151 days
QATTP of Disease Mean [2]: 196 days
QATTP of Disease Median [2]: 162 days
QATTP of Disease Mean [3]: 175 days
QATTP of Disease Median [3]: 146 days
QATTP of Disease Mean [4]: 179 days
QATTP of Disease Median [4]: 146 days
QATTP of Disease Mean [5]: 180 days
QATTP of Disease Median [5]: 151 days
QATTP of Disease Mean [6]: 190 days
QATTP of Disease Median [6]: 156 days
QATTP of Disease Mean [7]: 163 days
QATTP of Disease Median [7]: 138 days
QATTP of Disease Mean [8]: 159 days
QATTP of Disease Median [8]: 144 days
QATTP of Disease Mean [9]: 180 days
QATTP of Disease Median [9]: 142 days
QATTP of Disease Mean [10]: 190 days
QATTP of Disease Median [10]: 151 days
QATTP of Disease Mean [11]: 189 days
QATTP of Disease Median [11]: 132 days
QATTP of Disease Mean [12]: 198 days
QATTP of Disease Median [12]: 141 days
QATTP of Disease Mean [13]: 198 days
QATTP of Disease Median [13]: 178 days
QATTP of Disease Mean [14]: 209 days
QATTP of Disease Median [14]: 184 days
QATTP of Disease Mean [15]: 185 days
QATTP of Disease Median [15]: 176 days
QATTP of Disease Mean [16]: 188 days
QATTP of Disease Median [16]: 184 days
QATTP of Disease Mean [17]: 173 days
QATTP of Disease Median [17]: 141 days
QATTP of Disease Mean [18]: 180 days
QATTP of Disease Median [18]: 142 days
QATTP of Disease Mean [19]: 177 days
QATTP of Disease Median [19]: 123 days
QATTP of Disease Mean [20]: 182 days
QATTP of Disease Median [20]: 132 days
QATTP of Disease Mean [21]: 177 days
QATTP of Disease Median [21]: 133 days
QATTP of Disease Mean [22]: 186 days
QATTP of Disease Median [22]: 143 days
QATTP of Disease Mean [23]: 167 days
QATTP of Disease Median [23]: 125 days
QATTP of Disease Mean [24]: 169 days
QATTP of Disease Median [24]: 134 days
QATTP of Disease Mean [25]: 165 days
QATTP of Disease Median [25]: 109 days
QATTP of Disease Mean [26]: 174 days
QATTP of Disease Median [26]: 127 days
QATTP of Disease Mean [27]: 153 days
QATTP of Disease Median [27]: 104 days
QATTP of Disease Mean [28]: 158 days
QATTP of Disease Median [28]: 111 days
QATTP of Disease Mean [29]: 159 days
QATTP of Disease Median [29]: 104 days
QATTP of Disease Mean [30]: 167 days
QATTP of Disease Median [30]: 124 days
QATTP of Disease Mean [31]: 141 days
QATTP of Disease Median [31]: 103 days
QATTP of Disease Mean [32]: 145 days
QATTP of Disease Median [32]: 106 days
QATTP of Disease Mean [33]: 195 days
QATTP of Disease Median [33]: 162 days
QATTP of Disease Mean [34]: 206 days
QATTP of Disease Median [34]: 178 days
QATTP of Disease Mean [35]: 201 days
QATTP of Disease Median [35]: 156 days
QATTP of Disease Mean [36]: 207 days
QATTP of Disease Median [36]: 168 days
QATTP of Disease Mean [37]: 179 days
QATTP of Disease Median [37]: 133 days
QATTP of Disease Mean [38]: 188 days
QATTP of Disease Median [38]: 142 days
QATTP of Disease Mean [39]: 172 days
QATTP of Disease Median [39]: 127 days
QATTP of Disease Mean [40]: 178 days
QATTP of Disease Median [40]: 137 days
QATTP of Disease Mean [41]: 172 days
QATTP of Disease Median [41]: 118 days
QATTP of Disease Mean (EORTC Physical Functioning, 2.5 mg, per protocol): 181 days
